The text below walks through data of patent US20100069632A1, “SALTS OF PYRROLOPYRIMIDINONE DERIVATIVES AND PROCESS FOR PREPARING THE SAME” (SK CHEMICALS CO., LTD, priority 2006, published 2010).

Data set [1] in a line: Water and atmospheric (storage) stability: total impurities by liquid chromatography after storage. Particulars: for Storage stability compared with the SK-3530 dihydrochloride salt: summary of Tables 1 to 3. The data set is classed as physicochemical. On the procedure: This test is for confirming the storage stability of SK-3530 salt.
A sufficient stability is required to process a drug into a particular medication form. For instance, preparation into tablet or capsule requires atmospheric stability and preparation into injection may require water stability.
The following Table 1 (25° C., 75% humidity), Table 2 (40° C., 60% humidity) and Table 3 (50° C., 75% humidity) show the content of total impurities measured by liquid chromatography after storing dihydrochloride (2HCl), gentisate, maleate, citrate, fumarate and hemitartrate salts of SK-3530 for 1 week and 3 weeks.

A short description of data set [2]: Photostability test (UV and visible light), impurity content and color change. The data set is classed as physicochemical. To be noted: for Color change, Initial / Impurity content (%), Initial: photostability test; for Photostability against UV and visible light compared with the SK-3530 dihydrochloride salt: summary of Tables 4 and 5; for Color change, UV / Impurity content (%), UV: total UV radiation 200 W·h/m^2; for Color change, UV / Impurity content (%), UV / Color change, Visible / Impurity content (%), Visible: 25° C., 60% humidity; for Impurity content (%), UV / Impurity content (%), Visible: Petri dish; for Color change, Visible / Impurity content (%), Visible: total visible light radiation 1080 klux/m^2h. The method, then: The following Table 4 and Table 5 show the photostability test result for dihydrochloride salt (2HCl), gentisate, maleate, citrate, fumarate and hemitartrate salts of SK-3530. The total ultraviolet (UV) radiation was 200 W·h/m^2 and the total visible light radiation was 1080 klux/m^2h. Each salt was kept on a Petri dish under the condition of 25° C. and 60% humidity.

A short description of data set [3]: Thermal stability test at 105° C., impurity content and color change. The data set is classed as physicochemical. To be noted: for Impurity content (%), 3 hours / Color change, 3 hours / Impurity content (%), 48 hours / Color change, 48 hours: dryer at 105° C.; for Color change, 3 hours / Color change, 48 hours: macroscopic observation; for Thermal stability compared with the SK-3530 dihydrochloride salt: summary of Tables 6 and 7; for Color change, Initial / Impurity content (%), Initial: thermal stability test. On the procedure:
The following Table 6 and Table 7 show the thermal stability test result for dihydrochloride salt (2HCl), gentisate, maleate, citrate, fumarate and hemitartrate salts of SK-3530. Each salt was placed on a Petri dish and kept in a dryer at 105° C. Following macroscopic observation at 3 hours and 48 hours later, the content of impurities was measured with liquid chromatography.

The next data set can be described thus: Hygroscopicity. The data set is classed as physicochemical. Particulars: statement in words, no test described.
In a further data set the target is PDE-5 (Homo sapiens, UniProt O76074). To be noted: statement in words; cited from earlier work.

Counter-ions that a name gives are not always drawn.

Regarding `CCCOc1ccc(S(=O)(=O)N2CCN(CCO)CC2)cc1-c1nc2c(CCC)cn(CC)c2c(=O)[nH]1` [SK-3530 citrate salt], in data set [1], the “Impurity content (%) at 25° C., 75% humidity, 1 week” value was determined as 0.15%; the “Impurity content (%) at 25° C., 75% humidity, 3 weeks” value is listed as 0.15%; the “Impurity content (%) at 25° C., 75% humidity, Initial” value is 0.12%; the “Impurity content (%) at 40° C., 60% humidity, 1 week” value came out at 0.13%. In data set [1], the “Impurity content (%) at 40° C., 60% humidity, 3 weeks” value is reported as 0.14%; the “Impurity content (%) at 40° C., 60% humidity, Initial” value is reported as 0.12%; the “Impurity content (%) at 50° C., 75% humidity, 1 week” value is 0.14%; the “Impurity content (%) at 50° C., 75% humidity, 3 weeks” value was determined as 0.14%. In addition, in data set [1], the “Impurity content (%) at 50° C., 75% humidity, Initial” value is 0.12% and the “Storage stability compared with the SK-3530 dihydrochloride salt” value was “much superior”. Further, in data set [2], the “Color change, Initial” value is “White”; the “Impurity content (%), Initial” value was 0.12%; the “Photostability against UV and visible light compared with the SK-3530 dihydrochloride salt” value is reported as “much superior”; the “Color change, UV” value is reported as “White”. For the same compound, in data set [2], the “Impurity content (%), UV” value turned out to be 0.37%; the “Color change, Visible” value was “White”; the “Impurity content (%), Visible” value came out at 0.14%. Besides, in data set [3], the “Impurity content (%), 3 hours” value is reported as 0.30%; the “Color change, 3 hours” value was “White”; the “Impurity content (%), 48 hours” value is reported as 1.81%; the “Color change, 48 hours” value was “White”. Moreover, in data set [3], the “Thermal stability compared with the SK-3530 dihydrochloride salt” value was “much superior”; the “Color change, Initial” value was “White”; the “Impurity content (%), Initial” value amounted to 0.12%. Also, the Hygroscopicity result in “Hygroscopicity” is on record as “non-hygroscopic”.

On to `CCCOc1ccc(S(=O)(=O)N2CCN(CCO)CC2)cc1-c1nc2c(CCC)cn(CC)c2c(=O)[nH]1` [SK-3530 fumarate salt], for which, in data set [1], the “Impurity content (%) at 25° C., 75% humidity, 1 week” value was 0.02%; the “Impurity content (%) at 25° C., 75% humidity, 3 weeks” value is listed as 0.03%; the “Impurity content (%) at 25° C., 75% humidity, Initial” value is 0.02%; the “Impurity content (%) at 40° C., 60% humidity, 1 week” value is 0.02%. In addition, in data set [1], the “Impurity content (%) at 40° C., 60% humidity, 3 weeks” value stood at 0.05%; the “Impurity content (%) at 40° C., 60% humidity, Initial” value worked out at 0.02%; the “Impurity content (%) at 50° C., 75% humidity, 1 week” value is 0.02%; the “Impurity content (%) at 50° C., 75% humidity, 3 weeks” value amounted to 0.05%. For the same compound, in data set [1], the “Impurity content (%) at 50° C., 75% humidity, Initial” value is on record as 0.02% and the “Storage stability compared with the SK-3530 dihydrochloride salt” value was “much superior”. Moreover, in data set [2], the “Color change, Initial” value is reported as “White”; the “Impurity content (%), Initial” value is given as 0.02%; the “Photostability against UV and visible light compared with the SK-3530 dihydrochloride salt” value is listed as “much superior”; the “Color change, UV” value was “Pale yellow”. Besides, in data set [2], the “Impurity content (%), UV” value was found to be 0.08%; the “Color change, Visible” value is given as “White”; the “Impurity content (%), Visible” value is recorded as 0.07%. Also, in data set [3], the “Impurity content (%), 3 hours” value turned out to be 0.11%; the “Color change, 3 hours” value was “White”; the “Impurity content (%), 48 hours” value was 0.61%; the “Color change, 48 hours” value was “White”. In addition, in data set [3], the “Thermal stability compared with the SK-3530 dihydrochloride salt” value was “much superior”; the “Color change, Initial” value is on record as “White”; the “Impurity content (%), Initial” value is listed as 0.02%. Moreover, in the data set “Hygroscopicity”, the Hygroscopicity entry was “non-hygroscopic”.

For `CCCOc1ccc(S(=O)(=O)N2CCN(CCO)CC2)cc1-c1nc2c(CCC)cn(CC)c2c(=O)[nH]1` [SK-3530 gentisate salt], in data set [1], the “Impurity content (%) at 25° C., 75% humidity, 1 week” value is 0.09%; the “Impurity content (%) at 25° C., 75% humidity, 3 weeks” value is 0.12%; the “Impurity content (%) at 25° C., 75% humidity, Initial” value stood at 0.09%; the “Impurity content (%) at 40° C., 60% humidity, 1 week” value was 0.10%. In data set [1], the “Impurity content (%) at 40° C., 60% humidity, 3 weeks” value came to 0.10%; the “Impurity content (%) at 40° C., 60% humidity, Initial” value stood at 0.09%; the “Impurity content (%) at 50° C., 75% humidity, 1 week” value turned out to be 0.09%; the “Impurity content (%) at 50° C., 75% humidity, 3 weeks” value stood at 0.10%. Moreover, in data set [1], the “Impurity content (%) at 50° C., 75% humidity, Initial” value is 0.09% and the “Storage stability compared with the SK-3530 dihydrochloride salt” value is “much superior”. In data set [2], the “Color change, Initial” value is “White”; the “Impurity content (%), Initial” value is recorded as 0.09%; the “Photostability against UV and visible light compared with the SK-3530 dihydrochloride salt” value was “much superior”; the “Color change, UV” value is on record as “Pale yellow”. Moreover, in data set [2], the “Impurity content (%), UV” value was 0.36%; the “Color change, Visible” value is “Pale yellow”; the “Impurity content (%), Visible” value came to 0.17%. In addition, in data set [3], the “Impurity content (%), 3 hours” value stood at 0.09%; the “Color change, 3 hours” value was “White”; the “Impurity content (%), 48 hours” value was found to be 0.13%; the “Color change, 48 hours” value is “White”. For the same compound, in data set [3], the “Thermal stability compared with the SK-3530 dihydrochloride salt” value is listed as “much superior”; the “Color change, Initial” value is “White”; the “Impurity content (%), Initial” value amounted to 0.09%. The Hygroscopicity entry in the data set “Hygroscopicity” is reported as “non-hygroscopic”.

Consider `CCCOc1ccc(S(=O)(=O)N2CCN(CCO)CC2)cc1-c1nc2c(CCC)cn(CC)c2c(=O)[nH]1` [SK-3530 hemitartrate salt], for which, in data set [1], the “Impurity content (%) at 25° C., 75% humidity, 1 week” value is listed as 0.09%; the “Impurity content (%) at 25° C., 75% humidity, 3 weeks” value was 0.13%; the “Impurity content (%) at 25° C., 75% humidity, Initial” value was 0.07%; the “Impurity content (%) at 40° C., 60% humidity, 1 week” value was determined as 0.10%. In data set [1], the “Impurity content (%) at 40° C., 60% humidity, 3 weeks” value is given as 0.14%; the “Impurity content (%) at 40° C., 60% humidity, Initial” value came to 0.07%; the “Impurity content (%) at 50° C., 75% humidity, 1 week” value was found to be 0.11%; the “Impurity content (%) at 50° C., 75% humidity, 3 weeks” value came to 0.13%. In data set [1], the “Impurity content (%) at 50° C., 75% humidity, Initial” value turned out to be 0.07% and the “Storage stability compared with the SK-3530 dihydrochloride salt” value was “much superior”. Also, in data set [2], the “Color change, Initial” value is listed as “White”; the “Impurity content (%), Initial” value is recorded as 0.07%; the “Photostability against UV and visible light compared with the SK-3530 dihydrochloride salt” value is on record as “much superior”; the “Color change, UV” value is “White”. In addition, in data set [2], the “Impurity content (%), UV” value was determined as 0.52%; the “Color change, Visible” value is on record as “White”; the “Impurity content (%), Visible” value is given as 0.21%. In data set [3], the “Impurity content (%), 3 hours” value came to 0.14%; the “Color change, 3 hours” value is on record as “White”; the “Impurity content (%), 48 hours” value was found to be 0.70%; the “Color change, 48 hours” value is “White”. Further, in data set [3], the “Thermal stability compared with the SK-3530 dihydrochloride salt” value is listed as “much superior”; the “Color change, Initial” value is on record as “White”; the “Impurity content (%), Initial” value stood at 0.07%. In addition, the Hygroscopicity result in “Hygroscopicity” is “non-hygroscopic”.

In the case of `CCCOc1ccc(S(=O)(=O)N2CCN(CCO)CC2)cc1-c1nc2c(CCC)cn(CC)c2c(=O)[nH]1` [SK-3530 maleate salt], in data set [1], the “Impurity content (%) at 25° C., 75% humidity, 1 week” value was 0.12%; the “Impurity content (%) at 25° C., 75% humidity, 3 weeks” value is 0.12%; the “Impurity content (%) at 25° C., 75% humidity, Initial” value is 0.12%; the “Impurity content (%) at 40° C., 60% humidity, 1 week” value was 0.12%. Besides, in data set [1], the “Impurity content (%) at 40° C., 60% humidity, 3 weeks” value amounted to 0.12%; the “Impurity content (%) at 40° C., 60% humidity, Initial” value came to 0.12%; the “Impurity content (%) at 50° C., 75% humidity, 1 week” value is given as 0.15%; the “Impurity content (%) at 50° C., 75% humidity, 3 weeks” value stood at 0.19%. In addition, in data set [1], the “Impurity content (%) at 50° C., 75% humidity, Initial” value turned out to be 0.12% and the “Storage stability compared with the SK-3530 dihydrochloride salt” value was “much superior”. Also, in data set [2], the “Color change, Initial” value is recorded as “White”; the “Impurity content (%), Initial” value is recorded as 0.12%; the “Photostability against UV and visible light compared with the SK-3530 dihydrochloride salt” value is “much superior”; the “Color change, UV” value is recorded as “White”. In data set [2], the “Impurity content (%), UV” value was determined as 0.35%; the “Color change, Visible” value is on record as “White”; the “Impurity content (%), Visible” value is 0.14%. In data set [3], the “Impurity content (%), 3 hours” value turned out to be 0.15%; the “Color change, 3 hours” value is reported as “White”; the “Impurity content (%), 48 hours” value is on record as 0.74%; the “Color change, 48 hours” value is listed as “White”. Moreover, in data set [3], the “Thermal stability compared with the SK-3530 dihydrochloride salt” value was “much superior”; the “Color change, Initial” value is given as “White”; the “Impurity content (%), Initial” value is given as 0.12%. For the same compound, in “Hygroscopicity”, the Hygroscopicity result is “non-hygroscopic”.

Turning to `CCCOc1ccc(S(=O)(=O)N2CCN(CCO)CC2)cc1-c1nc2c(CCC)cn(CC)c2c(=O)[nH]1` [SK-3530, 5-ethyl-2-{5-[4-(2-hydroxyethyl)piperazin-1-ylsulfonyl]-2-n-propoxyphenyl}-7-n-propyl-I-3,5-dihydro-4H-pyrrolo[3,2-d]pyrimidin-4-one], on PDE-5, the “Selectivity for PDE-5 over other PDEs” value was “excellent selective inhibitor”.
